Columns and labels:
[1] = tested on: A375.S2 melanoma cells; experiment: Anti-tumor activity against subcutaneously implanted A375.S2 xenograft in SCID CES1c-KO mouse model; type: in vivo, SCID CES1c-KO mice
Method: In brief, ˜5×10^6 A375.S2 tumor cells (suspended in 1:1 media and MATRIGEL®) were subcutaneously implanted into the flank of female SCID CES1c-KO mice (Charles River Laboratories). When tumors had reached a volume of approximately 70-255 mm^3 (average 124 mm^3) on day 22, the mice were randomized and MGC018 or control vehicle were administered intravenously. In these studies, mice were administered either a single dose (1 mg/kg or 3 mg/kg, QW×1) of MGC018 or a fractionated dose of MGC018 (0.3 mg/kg or 1 mg/kg) once a week for 4 weeks (QW×4W). Vehicle was administered as a control on day 22. Tumors were measured twice weekly by orthogonal measurements with electronic calipers, with tumor volumes calculated as: (length×width×height)/2. The tumor volume (relative to control) was determined (“T/C”). A finding that the tumor volume of treated animals had decreased to ≤5 mm^3 during the study period was considered to denote a Complete Regression (“CR”) and a Partial Regression (“PR”) was defined when tumors were reduced by 50% or greater from day of dosing at any point during the study.

[2] = tested on: Calu-6 lung cancer cells; experiment: Anti-tumor activity against subcutaneously implanted Calu-6 xenograft in CD-1 Nude mouse model; type: in vivo, CD-1 Nude mice; parameters: key to Anti-Tumor Activity: Highly Active: A T/C<10% is considered highly active; Active: a T/C≤42% is the minimum level of anti-tumor activity; Inactive: a T/C value of >42% is inactive
Method: In brief, ˜5×10^6 tumor cells (suspended in 1:1 media and MATRIGEL®) were subcutaneously implanted into the flank of female CD-1 Nude mice (homozygous; Charles River Laboratories). When tumors had reached a volume of approximately 100-235 mm3 (average 172 mm^3) on day 21, the mice were randomized and MGC018 or control vehicle were administered intravenously. In these studies, mice were administered either a single dose (12 mg/kg, QW×1) of MGC018 or a fractionated dose of MGC018 (0.3 mg/kg, 1 mg/kg, or 3 mg/kg) once a week for 4 weeks (QW×4W). Vehicle was administered as a control on day 21. Tumors were measured twice weekly by orthogonal measurements with electronic calipers, with tumor volumes calculated as: (length×width×height)/2. The tumor volume (relative to control) was determined (“T/C”). A finding that the tumor volume of treated animals had decreased to ≤5 mm^3 during the study period was considered to denote a Complete Regression (“CR”) and a Partial Regression (“PR”) was defined when tumors were reduced by 50% or greater from day of dosing at any point during the study.

[3] = 0.3 mg/kg, QW × 4W, intravenous

MGC018: B7-H3-ADC: Light and Heavy Chain of anti-B7-H3 hmAb-A (SEQ ID NO:19, 20) conjugated via maleimide, valine-citrulline, para-aminobenzyloxycarbonyl linker to seco-DUBA payload
% T/C at Day 53 [1, 3]: 6%
CR (complete regression) [1, 3]: 0/7
PR (partial regression) [1, 3]: 4/7
% T/C at Day 53 ([1]; 1 mg/kg, QW × 1, intravenous): 5%
CR (complete regression) ([1]; 1 mg/kg, QW × 1, intravenous): 0/7
PR (partial regression) ([1]; 1 mg/kg, QW × 1, intravenous): 7/7
% T/C at Day 53 ([1]; 1 mg/kg, QW × 4W, intravenous): 1%
CR (complete regression) ([1]; 1 mg/kg, QW × 4W, intravenous): 6/7
PR (partial regression) ([1]; 1 mg/kg, QW × 4W, intravenous): 7/7
% T/C at Day 53 ([1]; 3 mg/kg, QW × 1, intravenous): 1%
CR (complete regression) ([1]; 3 mg/kg, QW × 1, intravenous): 7/7
PR (partial regression) ([1]; 3 mg/kg, QW × 1, intravenous): 7/7
anti-tumor activity of fractionated dose compared with single dose ([1]; fractionated 0.3 and 1 mg/kg QW×4W vs single 1 or 3 mg/kg QW×1): near equivalent anti-tumor activity
% T/C at Day 44 [2, 3]: 78%
Anti-Tumor Activity [2, 3]: Active
CR (complete regression) [2, 3]: 0/7
PR (partial regression) [2, 3]: 0/7
% T/C at Day 44 ([2]; 1 mg/kg, QW × 4W, intravenous): 30%
Anti-Tumor Activity ([2]; 1 mg/kg, QW × 4W, intravenous): Active
CR (complete regression) ([2]; 1 mg/kg, QW × 4W, intravenous): 0/7
PR (partial regression) ([2]; 1 mg/kg, QW × 4W, intravenous): 0/7
% T/C at Day 44 ([2]; 3 mg/kg, QW × 4W, intravenous): 17%
Anti-Tumor Activity ([2]; 3 mg/kg, QW × 4W, intravenous): Active
CR (complete regression) ([2]; 3 mg/kg, QW × 4W, intravenous): 0/7
PR (partial regression) ([2]; 3 mg/kg, QW × 4W, intravenous): 2/7
% T/C at Day 44 ([2]; 12 mg/kg, QW × 1, intravenous): 6%
CR (complete regression) ([2]; 12 mg/kg, QW × 1, intravenous): 0/7
PR (partial regression) ([2]; 12 mg/kg, QW × 1, intravenous): 2/7
anti-tumor activity of fractionated dose compared with single dose ([2]; fractionated 0.3, 1 and 3 mg/kg QW×4W vs single 12 mg/kg QW×1): near equivalent anti-tumor activity

— patent publication US20250135022A1, “METHODS FOR THE USE OF A B7-H3 ANTIBODY-DRUG CONJUGATE IN COMBINATION WITH A PD-1 X CTLA-4 BISPECIFIC MOLECULE” (MACROGENICS, INC., priority 2022, published 2025)
